In patent US20060069067A1, “Combination of an aromatase inhibitor with a bisphosphonate” (priority 2002, published 2006):
One block for each compound: values may come before it.

Legend:
Type in all cases: in vivo, rat
letrozole-treated rats [1] = test: Compression test of the 5th lumbar vertebral body after letrozole administration
Method: (§1) Material and Methods: Adult, skeletally mature, 8-month-old female Wistar rats were assigned to the following treatment groups […]: Sham (vehicle), OVX, Let-treated, OVX +Zol and Let+Zol. Zol was injected into the tail vein as a single dose of 0.8, 4 or 20 μg/kg 3 days before OVX or before initiating daily oral dosing of Let (1 mg/kg) for 24 weeks. Changes in total and cancellous bone mineral density (BMD) and cortical thickness in the proximal tibia metaphysis were monitored non-invasively by peripheral quantitative computed tomography (pQCT) at 0, 2, 4, 8, 12, 16, 20 and 24 weeks.
(§2) Both tibiae, femora and lumbar vertebrae L1-L6 were harvested at necropsy in order to carry out biomechanical testing.
(§3) Mechanical properties of the 5th lumbar vertebral body were evaluated in compression after removal of the epiphyseal ends, posterior pedicle arch and spinous process on a 4 mm segment with piano-parallel ends.

letrozole-treated rats [2] = test: pQCT monitoring of bone loss in the proximal tibia metaphysis of rats given daily oral letrozole
Method: (§4) It was investigated whether bone loss induced in rats by either ovariectomy (OVX) or the aromatase inhibitor letrozole (Let) could be prevented by the bisphosphonate zoledronic acid (Zol).
as §1

OVX rats [3] = test: pQCT monitoring of bone loss in the proximal tibia metaphysis of ovariectomized rats
Method: as §4, §1

OVX rats [4] = test: Compression test of the 5th lumbar vertebral body after OVX; conditions: single iv 0.8, 4 or 20 μg/kg
Method: as §1, §2, §3

[5] = daily oral letrozole 1 mg/kg, at 24 weeks, P<0.01 vs sham
[6] = letrozole-treated rats, 4 μg/kg iv
[7] = letrozole-treated rats, highest dose (20 μg/kg iv), P<0.01 vs letrozole, NS vs sham

ultimate bone strength of 5th lumbar vertebral body (letrozole-treated rats [1]; daily oral letrozole 1 mg/kg for 24 weeks, NS): decreased
change in cancellous bone mineral density (cancellous bone loss) (letrozole-treated rats [2]; [5]): −26%
change in mean cortical thickness (letrozole-treated rats [2]; [5]): −21%
change in total BMD (letrozole-treated rats [2]; [5]): −13%
SMILES: N#Cc1ccc(C(c2ccc(C#N)cc2)n2cncn2)cc1 [letrozole, 4-[α-(4-cyanophenyl)-1-(1,2,4-triazolyl)methyl]-benzonitrile]

SMILES: O=P(O)(O)C(O)(Cn1ccnc1)P(=O)(O)O [zoledronic acid, 2-(imidazol-1yl)-1-hydroxyethane-1,1-diphosphonic acid]
duration of full protection against cancellous bone loss (OVX rats [3]; highest dose (20 μg/kg iv)): 20 weeks
duration of full protection of total BMD (NS vs sham) (OVX rats [3]; highest dose (20 μg/kg iv)): 24 week
protection of cortical thickness (NS vs sham at all time points) (OVX rats [3]; highest dose (20 μg/kg iv), 24-week study): fully protective for the full duration of the study
cancellous bone at 24 weeks (OVX rats [3]; highest dose (20 μg/kg iv), 24 weeks, NS vs sham): mild cancellous bone loss was visible
time for which cancellous bone loss was delayed (marginally but significantly) (OVX rats [3]; single iv 0.8 μg/kg): 12 weeks
protective effect on mean cortical thickness (OVX rats [3]; single iv 0.8 μg/kg, at 2 weeks, P<0.05 vs OVX): marginal protective effect
time for which cancellous bone mineral density was significantly better than in OVX controls (OVX rats [3]; single iv 4 μg/kg): 24 weeks
time for which cortical thickness was significantly better than in OVX controls (OVX rats [3]; single iv 4 μg/kg): 12 weeks
time for which cancellous bone mineral density was significantly better than in OVX controls (OVX rats [3]; single iv 20 μg/kg): 24 weeks
time for which cortical thickness was significantly better than in OVX controls (OVX rats [3]; single iv 20 μg/kg): 24 weeks
time for which bone loss (total BMD) was delayed significantly (OVX rats [3]; single iv injection 0.8 μg/kg 3 days before OVX): 8 weeks
time for which bone loss (total BMD) was delayed significantly (OVX rats [3]; single iv injection 4 μg/kg): 20 weeks
time for which bone loss (total BMD) was delayed significantly (OVX rats [3]; single iv injection 20 μg/kg): 24 weeks
ultimate bone strength of 5th lumbar vertebral body (letrozole-treated rats [1]; letrozole-treated rats, single iv 0.8, 4 or 20 μg/kg, compression): dose-dependently improved
time for which cancellous bone loss was fully prevented (letrozole-treated rats [2]; [6]): 8 weeks
time for which cancellous bone mineral density remained significantly higher than in letrozole-treated rats (letrozole-treated rats [2]; [6]): 24 weeks
time for which cortical thinning was fully prevented (letrozole-treated rats [2]; [6]): 4 weeks
week until which cortical thickness stayed significantly above the letrozole control (letrozole-treated rats [2]; letrozole-treated rats, 4 μg/kg iv, P<0.01 vs letrozole): 20 week
duration of full protection of total BMD (NS vs sham) (letrozole-treated rats [2]; letrozole-treated rats, highest dose (20 μg/kg iv)): 24 week
duration of full protection against cancellous bone loss (letrozole-treated rats [2]; [7]): 24 weeks
time for which cortical thinning was fully protected against (letrozole-treated rats [2]; [7]): 24 weeks
time for which bone loss (total BMD) was delayed (marginally but significantly) (letrozole-treated rats [2]; letrozole-treated rats, single iv 0.8 μg/kg): 4 weeks
time for which cancellous bone loss was delayed (marginally but significantly) (letrozole-treated rats [2]; letrozole-treated rats, single iv 0.8 μg/kg, P<0.05 vs letrozole): 8 weeks
protective effect on mean cortical thickness (letrozole-treated rats [2]; letrozole-treated rats, single iv 0.8 μg/kg, at 2 weeks, P<0.05 vs letrozole): marginal but significant protective effect
time for which bone loss (total BMD) was delayed significantly (letrozole-treated rats [2]; letrozole-treated rats, single iv 4 μg/kg, P<0.01 vs letrozole): 24 weeks
time for which bone loss (total BMD) was delayed significantly (letrozole-treated rats [2]; letrozole-treated rats, single iv 20 μg/kg, P<0.01 vs letrozole): 24 weeks
duration of full protection against Let-induced bone loss (letrozole-treated rats [2]; rats, dose of 20 μg/kg): at least 24 weeks
protection against cancellous bone loss, cortical thinning and reduction of bone strength induced by daily oral Let (letrozole-treated rats [2]; rats, summary in discussion): dose-dependently protects
protection against bone loss in rats treated with letrozole (letrozole-treated rats [2]; summary statement): long term protection against bone loss
ultimate bone strength of 5th lumbar vertebral body (OVX rats [4]): dose-dependently improved
